# Measurements as given in patent US11739098B2 (BRISTOL-MYERS SQUIBB COMPANY, priority 2017, dated 2023).
# Legend:
# Assay type in all cases: cell-based
# human TLR7 = target: T1, human TLR7 (Homo sapiens, UniProt Q9NYK1); assay: TLR7 inhibition reporter assay (HEK-Blue cells, SEAP reporter, gardiquimod stimulation); conditions: HEK-Blue cells overexpressing human TLR7, SEAP reporter, gardiquimod 7.5 μM
# T1 construct: host or cells: HEK-Blue cells (HEK293-derived reporter line)
# T1 sequence (Q9NYK1 27-1049): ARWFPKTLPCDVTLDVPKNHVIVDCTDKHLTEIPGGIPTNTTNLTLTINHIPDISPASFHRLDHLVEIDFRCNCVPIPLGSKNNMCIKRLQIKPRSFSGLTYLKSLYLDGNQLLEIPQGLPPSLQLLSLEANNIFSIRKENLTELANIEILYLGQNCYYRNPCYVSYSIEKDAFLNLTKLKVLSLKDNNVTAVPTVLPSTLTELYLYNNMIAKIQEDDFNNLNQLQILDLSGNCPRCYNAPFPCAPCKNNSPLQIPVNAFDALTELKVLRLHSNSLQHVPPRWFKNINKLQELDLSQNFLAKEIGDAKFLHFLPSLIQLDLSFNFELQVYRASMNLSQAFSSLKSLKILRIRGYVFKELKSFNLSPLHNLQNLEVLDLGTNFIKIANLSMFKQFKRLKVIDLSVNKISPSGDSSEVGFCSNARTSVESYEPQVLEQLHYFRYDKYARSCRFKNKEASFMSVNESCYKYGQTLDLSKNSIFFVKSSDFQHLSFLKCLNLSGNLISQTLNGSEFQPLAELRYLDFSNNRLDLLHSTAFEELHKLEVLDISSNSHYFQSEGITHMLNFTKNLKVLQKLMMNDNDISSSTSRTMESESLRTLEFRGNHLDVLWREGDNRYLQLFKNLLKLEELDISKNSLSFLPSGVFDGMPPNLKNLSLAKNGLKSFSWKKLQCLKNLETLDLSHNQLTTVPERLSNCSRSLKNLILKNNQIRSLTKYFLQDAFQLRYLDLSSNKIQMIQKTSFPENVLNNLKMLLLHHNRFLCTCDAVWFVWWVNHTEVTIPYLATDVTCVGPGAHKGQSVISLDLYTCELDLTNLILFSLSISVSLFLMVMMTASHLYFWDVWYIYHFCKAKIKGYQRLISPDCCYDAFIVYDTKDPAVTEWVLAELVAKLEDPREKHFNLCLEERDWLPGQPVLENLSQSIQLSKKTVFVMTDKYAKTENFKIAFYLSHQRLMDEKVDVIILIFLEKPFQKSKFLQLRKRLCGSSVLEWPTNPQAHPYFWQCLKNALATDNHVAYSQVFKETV
# In short: (§1)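 HEK-Blue cells overexpressing human TLR7, TLR8 or TLR9 (NF-κB/AP-1-driven SEAP) pre-treated 30 min at room temperature with compound (0.05 nM–50 μM), then stimulated with gardiquimod 7.5 μM (TLR7), R848 15.9 μM (TLR8) or ODN2006 5 nM (TLR9). SEAP read colorimetrically after 22 h at 37 °C; % inhibition calculated.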
# human TLR8 = target: T2, human TLR8 (Homo sapiens, UniProt Q9NR97); assay: TLR8 inhibition reporter assay (HEK-Blue cells, SEAP reporter, R848 stimulation); conditions: HEK-Blue cells overexpressing human TLR8, SEAP reporter, R848 15.9 μM
# T2 construct: host or cells: HEK-Blue cells (HEK293-derived reporter line)
# T2 sequence (Q9NR97 27-1041): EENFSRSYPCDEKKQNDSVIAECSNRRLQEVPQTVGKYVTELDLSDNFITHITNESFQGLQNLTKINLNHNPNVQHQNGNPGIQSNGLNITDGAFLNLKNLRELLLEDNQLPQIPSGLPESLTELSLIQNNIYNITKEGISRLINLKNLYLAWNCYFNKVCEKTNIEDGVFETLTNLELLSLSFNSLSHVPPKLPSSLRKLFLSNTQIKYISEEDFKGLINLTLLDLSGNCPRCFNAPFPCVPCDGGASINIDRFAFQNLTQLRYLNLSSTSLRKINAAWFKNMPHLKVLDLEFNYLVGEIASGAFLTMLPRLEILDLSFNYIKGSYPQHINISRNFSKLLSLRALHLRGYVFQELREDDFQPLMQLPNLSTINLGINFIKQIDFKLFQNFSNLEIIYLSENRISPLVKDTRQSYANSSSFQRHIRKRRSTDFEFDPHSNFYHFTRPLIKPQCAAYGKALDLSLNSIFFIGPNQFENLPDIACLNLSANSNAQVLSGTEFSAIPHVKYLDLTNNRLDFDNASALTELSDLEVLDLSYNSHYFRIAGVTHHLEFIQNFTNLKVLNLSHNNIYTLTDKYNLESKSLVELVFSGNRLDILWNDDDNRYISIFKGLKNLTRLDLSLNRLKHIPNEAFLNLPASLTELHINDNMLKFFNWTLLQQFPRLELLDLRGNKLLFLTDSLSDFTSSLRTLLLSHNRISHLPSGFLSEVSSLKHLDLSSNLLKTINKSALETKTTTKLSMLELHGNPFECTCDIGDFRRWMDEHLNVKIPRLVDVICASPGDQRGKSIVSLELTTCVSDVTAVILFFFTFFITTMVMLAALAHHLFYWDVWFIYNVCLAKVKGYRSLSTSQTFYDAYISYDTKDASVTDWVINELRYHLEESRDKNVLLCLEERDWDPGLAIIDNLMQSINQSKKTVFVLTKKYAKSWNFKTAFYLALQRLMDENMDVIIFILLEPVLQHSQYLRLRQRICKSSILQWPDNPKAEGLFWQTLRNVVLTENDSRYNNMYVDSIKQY
# In short: as §1
# human TLR9 = target: T3, human TLR9 (Homo sapiens, UniProt Q9NR96); assay: TLR9 inhibition reporter assay (HEK-Blue cells, SEAP reporter, ODN2006 stimulation); conditions: HEK-Blue cells overexpressing human TLR9, SEAP reporter, ODN2006 5 nM
# T3 construct: host or cells: HEK-Blue cells (HEK293-derived reporter line)
# T3 sequence (Q9NR96 26-1032): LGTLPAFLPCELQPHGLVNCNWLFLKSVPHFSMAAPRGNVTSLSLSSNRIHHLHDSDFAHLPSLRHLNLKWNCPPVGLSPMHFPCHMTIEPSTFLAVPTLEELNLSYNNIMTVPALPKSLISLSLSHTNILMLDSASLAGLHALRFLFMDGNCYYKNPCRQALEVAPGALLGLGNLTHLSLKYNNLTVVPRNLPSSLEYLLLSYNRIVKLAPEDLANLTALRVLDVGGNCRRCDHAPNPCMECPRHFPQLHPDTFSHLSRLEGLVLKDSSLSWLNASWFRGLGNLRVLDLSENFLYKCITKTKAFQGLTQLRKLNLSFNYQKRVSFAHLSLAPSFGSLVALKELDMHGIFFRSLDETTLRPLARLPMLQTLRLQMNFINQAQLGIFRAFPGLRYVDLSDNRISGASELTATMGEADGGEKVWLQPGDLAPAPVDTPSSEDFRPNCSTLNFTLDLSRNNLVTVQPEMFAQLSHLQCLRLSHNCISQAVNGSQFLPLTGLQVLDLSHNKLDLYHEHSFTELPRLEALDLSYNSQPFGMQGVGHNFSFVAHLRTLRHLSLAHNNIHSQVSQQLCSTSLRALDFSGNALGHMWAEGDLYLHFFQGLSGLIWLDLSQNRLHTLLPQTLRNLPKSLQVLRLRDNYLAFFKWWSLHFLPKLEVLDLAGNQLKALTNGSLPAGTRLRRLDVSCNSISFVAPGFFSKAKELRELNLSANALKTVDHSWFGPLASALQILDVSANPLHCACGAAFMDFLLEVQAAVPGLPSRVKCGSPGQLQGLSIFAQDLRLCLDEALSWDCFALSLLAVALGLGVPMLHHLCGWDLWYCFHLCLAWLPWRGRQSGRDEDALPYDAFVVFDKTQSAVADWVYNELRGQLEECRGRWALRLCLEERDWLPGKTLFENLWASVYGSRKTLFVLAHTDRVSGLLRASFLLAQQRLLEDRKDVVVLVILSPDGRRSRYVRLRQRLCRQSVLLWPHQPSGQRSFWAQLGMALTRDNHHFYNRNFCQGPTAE
# In short: as §1
SMILES,IC50 (human TLR7) [nM],IC50 (human TLR8) [nM],IC50 (human TLR9) [nM]
"CC(C)c1c(-c2ccc3[nH]cnc3c2)[nH]c2ccc(C3CCNCC3)cc12 [Example 50, 5-(3-isopropyl-5-(piperidin-4-yl)-1H-indol-2-yl)-1H-benzo[d]imidazole]",100 to 1000,1000 to 50000,1000 to 50000
"CC(C)c1c(-c2cc(F)c3nccn3c2)[nH]c2ccc(C3CCN(C(=O)C[C@H](C)O)CC3)cc12 [Example 604, (S)-1-(4-(2-(8-fluoroimidazo[1,2-a]pyridin-6-yl)-3-isopropyl-1H-indol-5-yl)piperidin-1-yl)-3-hydroxybutan-1-one]",< 100,1000 to 50000,> 50000
"CCN(CC)C(=O)C1CCCN(CC(=O)N2CCC(c3ccc4[nH]c(-c5ccnc6[nH]ccc56)c(C(C)C)c4c3)CC2)C1 (stereo not drawn) [Example 569, N,N-diethyl-1-(2-(4-(3-isopropyl-2-(1H-pyrrolo[2,3-b]pyridin-4-yl)-1H-indol-5-yl)piperidin-1-yl)-2-oxoethyl)piperidine-3-carboxamide]",< 100,< 100,100 to 1000
"Cc1nc2cc(-c3[nH]c4ccc(C5CCN(C6COC6)CC5)cc4c3C(C)C)ccn2n1 [Example 728, 7-(3-isopropyl-5-(1-(oxetan-3-yl)piperidin-4-yl)-1H-indol-2-yl)-2-methyl-[1,2,4]triazolo[1,5-a]pyridine]",< 100,1000 to 50000,1000 to 50000
"CC(C)c1c(-c2ccnc3[nH]ncc23)[nH]c2ccc(C3CCN(CC(C)(C)CN(C)C)CC3)cc12 [Example 847, 3-(4-(3-isopropyl-2-(1H-pyrazolo[3,4-b]pyridin-4-yl)-1H-indol-5-yl)piperidin-1-yl)-N,N,2,2-tetramethylpropan-1-amine]",< 100,< 100,100 to 1000
"COc1cc(-c2[nH]c3ccc(C4CCNCC4)cc3c2C(C)C)c2ccccc2n1 [Example 105, 4-(3-isopropyl-5-(piperidin-4-yl)-1H-indol-2-yl)-2-methoxyquinoline]",< 100,100 to 1000,1000 to 50000
"CC(C)c1c(-c2cc(C(F)(F)F)c3nccn3c2)[nH]c2ccc(C3CCNCC3)cc12 [Example 136, 6-(3-isopropyl-5-(piperidin-4-yl)-1H-indol-2-yl)-8-(trifluoromethyl)imidazo[1,2-a]pyridine]",< 100,< 100,100 to 1000
"COCCNC(=O)c1cn2cc(-c3[nH]c4ccc(C5CCNCC5)cc4c3C(C)C)cc(C)c2n1 [Example 269, 6-(3-isopropyl-5-(piperidin-4-yl)-1H-indol-2-yl)-N-(2-methoxyethyl)-8-methylimidazo[1,2-a]pyridine-2-carboxamide]",< 100,< 100,100 to 1000

# Results, then the molecule that gave them:
IC50 (human TLR7) [nM],IC50 (human TLR8) [nM],IC50 (human TLR9) [nM],SMILES
< 100,< 100,1000 to 50000,"Cc1nnn2ccc(-c3[nH]c4ccc(C5CCN(CC(=O)N(C)C)CC5)cc4c3C(C)C)cc12 [Example 318, 2-(4-(3-isopropyl-2-(3-methyl-[1,2,3]triazolo[1,5-a]pyridin-5-yl)-1H-indol-5-yl)piperidin-1-yl)-N,N-dimethylacetamide]"
< 100,100 to 1000,100 to 1000,"CC(C)c1c(-c2ccn3cnnc3c2)[nH]c2ccc(C3CCNCC3)cc12 [Example 83, 7-(3-isopropyl-5-(piperidin-4-yl)-1H-indol-2-yl)-[1,2,4]triazolo[4,3-a]pyridine]"
< 100,< 100,1000 to 50000,"CCc1c(-c2ccnc3[nH]ncc23)[nH]c2ccc(C3CCN(CC(N)=O)CC3)cc12 [Example 289, 2-(4-(3-ethyl-2-(1H-pyrazolo[3,4-b]pyridin-4-yl)-1H-indol-5-yl)piperidin-1-yl)acetamide]"
100 to 1000,1000 to 50000,1000 to 50000,"CC(C)c1c(-c2cnc3[nH]ccc3c2)[nH]c2ccc(C3CCN(C(=O)CN(C)C)CC3)cc12 [Example 563, 2-(dimethylamino)-1-(4-(3-isopropyl-2-(1H-pyrrolo[2,3-b]pyridin-5-yl)-1H-indol-5-yl)piperidin-1-yl)ethan-1-one]"
< 100,< 100,1000 to 50000,"Cc1cc2nnnn2cc1-c1[nH]c2ccc(C3CCN(Cc4ncn(C)n4)CC3)cc2c1C(C)C [Example 886, 6-(3-isopropyl-5-(1-((1-methyl-1H-1,2,4-triazol-3-yl)methyl)piperidin-4-yl)-1H-indol-2-yl)-7-methyltetrazolo[1,5-a]pyridine]"
< 100,< 100,100 to 1000,"CC(C)c1c(-c2cc(N)c3nccn3c2)[nH]c2ccc(C3CCNCC3)cc12 [Example 117, 6-(3-isopropyl-5-(piperidin-4-yl)-1H-indol-2-yl)imidazo[1,2-a]pyridin-8-amine]"
< 100,100 to 1000,> 50000,"CC(C)c1c(-c2ccc3nccn3c2)[nH]c2ccc(C3CCN(C(=O)C4CC(=O)N(C)C4)CC3)cc12 (stereo not drawn) [Example 645, 4-(4-(2-(imidazo[1,2-a]pyridin-6-yl)-3-isopropyl-1H-indol-5-yl)piperidine-1-carbonyl)-1-methylpyrrolidin-2-one]"
